Target: Transthyretin (Homo sapiens) (UniProt P02766)
Assay: Induction of stability of human recombinant interleukin 2 assessed as binding affinity of drug-conjugated rIL2 to human TTR in PBS buffer at pH 7.4 measured after 20 mins fluorescence polarization assay

With Cc1n[nH]c(C)c1CCCOc1cc(OCCCc2cn(CCOCCOCCOCCOCCNC(=O)C3CCC(CN4C(=O)C=CC4=O)CC3)nn2)cc(C(=O)O)c1 (stereo unspecified) the Kd was 851 nM.

— BindingDB's records for doi:10.1021/acs.jmedchem.1c01426 (University of The Pacific, 2021)
